Values of other authors, collected in patent US11400105B2, “Anti-inflammatory properties of marine lipid compositions” (AKER BIOMARINE ANTARCTIC AS, priority 2006, dated 2022).

Experiments:
pre-term infants = settings: for absorption: ref [8]
[1] = ethyl esters (4 g/d); ref [12]

| SMILES | absorption (pre-term infants) | relative absorption based on the area under the concentration curve [1] | relative absorption compared to oleic acid calculated from peak concentrations [1] | absorption of DHA from egg lecithin (pre-term infants; ref [7]) | absorption of DHA from triglycerides (pre-term infants; ref [7]) |
| --- | --- | --- | --- | --- | --- |
| CCCCCC=CCC=CCC=CCC=CCCCC(=O)O [AA, 5,8,11,14-eicosatetraenoic acid] | 75% | – | – | – | – |
| CC/C=C\C/C=C\C/C=C\C/C=C\C/C=C\C/C=C\CCC(=O)O [DHA, 4,7,10,13,16,19-docosahexanoic acid] | 62% | 93% | 100% | 90% | 80% |
| CCC=CCC=CCC=CCC=CCC=CCCCC(=O)O [EPA, 5,8,11,14,17-eicosapentaenoic acid] | – | 91% | 94% | – | – |
